Source: ChEMBL document CHEMBL6153125, “Harnessing the Magic Methyl Effect: Discovery of CLPP-2068 as a Novel HsClpP Activator for the Treatment of Diffuse Large B-Cell Lymphoma” (J Med Chem, 2025)
Blank lines part the entries; values can stand above or below the molecule they belong to. Non-standard residues stand in square brackets, D forms with d. Residues, ends and D or L forms follow the SMILES beside them. αMeP = C[C@@]1(C(=O)O)CCCN1

Legend:
[1] = target: T1, 3-hydroxy-3-methylglutaryl-coenzyme A reductase (Rattus norvegicus, UniProt P51639)
T1 sequence (P51639 whole entry): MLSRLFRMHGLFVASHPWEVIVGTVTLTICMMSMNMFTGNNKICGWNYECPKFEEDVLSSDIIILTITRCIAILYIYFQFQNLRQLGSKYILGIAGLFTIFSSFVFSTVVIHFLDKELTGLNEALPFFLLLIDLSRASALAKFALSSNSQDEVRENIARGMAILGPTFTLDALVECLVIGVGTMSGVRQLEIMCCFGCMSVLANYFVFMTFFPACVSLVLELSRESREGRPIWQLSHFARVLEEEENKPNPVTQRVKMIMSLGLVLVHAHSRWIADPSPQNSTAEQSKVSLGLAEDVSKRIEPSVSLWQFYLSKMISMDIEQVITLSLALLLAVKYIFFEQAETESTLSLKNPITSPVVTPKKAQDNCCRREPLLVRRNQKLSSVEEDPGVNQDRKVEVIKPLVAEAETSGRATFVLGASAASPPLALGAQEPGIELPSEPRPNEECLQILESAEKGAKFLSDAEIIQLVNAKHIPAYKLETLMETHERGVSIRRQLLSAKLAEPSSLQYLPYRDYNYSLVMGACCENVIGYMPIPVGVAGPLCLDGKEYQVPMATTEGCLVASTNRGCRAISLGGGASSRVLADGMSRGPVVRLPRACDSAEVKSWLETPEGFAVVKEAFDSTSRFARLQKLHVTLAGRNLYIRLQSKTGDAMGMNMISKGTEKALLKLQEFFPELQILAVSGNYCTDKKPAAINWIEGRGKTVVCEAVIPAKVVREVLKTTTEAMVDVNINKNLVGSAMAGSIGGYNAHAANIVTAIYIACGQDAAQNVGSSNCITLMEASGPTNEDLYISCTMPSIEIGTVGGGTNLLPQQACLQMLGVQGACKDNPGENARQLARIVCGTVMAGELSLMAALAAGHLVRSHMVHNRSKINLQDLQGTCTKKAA
Description: Inhibition of HMG-CoA reductase activity in rat liver microsomes

[2] = target: ATP-dependent Clp protease proteolytic subunit, mitochondrial (Homo sapiens, UniProt Q16740); test: Activation of human ClpP extracted from Escherichia coli using Ac-WLA-AMC as substrate assessed as fluorescence signal measured after 10 mins incubation
in vivo [3] = settings: rat, blood, iv, 10 mg/kg
Description: Elimination half life in rat blood at 10 mg/kg, iv measured after 12 hrs

OCI-Ly10 = test: Antiproliferative activity against human OCI-Ly10 cells assessed as cell viability measured after 72 hrs incubation by CellTiter-based growth inhibition assay; settings: OCI-Ly10, 72 h
Bcr/Abl fusion protein = Bcr/Abl fusion protein (Homo sapiens, UniProt P00519); test: Inhibition of Bcr-Abl (unknown origin)
SU-DHL-6 = test: Antiproliferative activity against human SU-DHL-6 cells assessed as cell viability measured after 72 hrs incubation by CellTiter-based growth inhibition assay; settings: SU-DHL-6, 72 h
OCI-Ly3 = test: Antiproliferative activity against human OCI-Ly3 cells assessed as cell viability measured after 72 hrs incubation by CellTiter-based growth inhibition assay; settings: OCI-Ly3, 72 h
SUD4 = test: Antiproliferative activity against human SU-DHL-4 cells assessed as cell viability measured after 72 hrs incubation by CellTiter-based growth inhibition assay; settings: SU-DHL-4, 72 h
SU-DHL-2 = test: Antiproliferative activity against human SU-DHL-2 cells assessed as cell viability measured after 72 hrs incubation by CellTiter-based growth inhibition assay; settings: SU-DHL-2, 72 h
Toledo = test: Antiproliferative activity against human Toledo cells assessed as cell viability measured after 72 hrs incubation by CellTiter-based growth inhibition assay
[4] = Half life in ICR mouse at 10 mg/kg, po measured upto 24 hrs by LC-MS/MS analysis; settings: in vivo
[5] = MRT in ICR mouse at 10 mg/kg, po measured upto 24 hrs by LC-MS/MS analysis; settings: in vivo
[6] = Half life in ICR mouse at 2 mg/kg, iv measured upto 24 hrs by LC-MS/MS analysis; settings: in vivo
[7] = AUCt in ICR mouse at 2 mg/kg, iv measured upto 24 hrs by LC-MS/MS analysis; settings: in vivo
[8] = Clearance in ICR mouse at 2 mg/kg, iv measured upto 24 hrs by LC-MS/MS analysis; settings: in vivo
[9] = MRT in ICR mouse at 2 mg/kg, iv measured upto 24 hrs by LC-MS/MS analysis; settings: in vivo
[10] = Volume of distribution at steady state in ICR mouse at 2 mg/kg measured upto 24 hrs by LC-MS/MS analysis; settings: in vivo, iv
[11] = Metabolic stability in rat liver microsomes assessed as half life
[12] = Metabolic stability in human liver microsomes assessed as half life
[13] = Metabolic stability in rat liver microsomes assessed as intrinsic clearance
[14] = Metabolic stability in human liver microsomes assessed as intrinsic clearance
[15] = Metabolic stability in rat liver microsomes assessed as apparent intrinsic clearance
[16] = Metabolic stability in human liver microsomes assessed as apparent intrinsic clearance
[17] = Metabolic stability in rat liver microsomes assessed as hepatic clearance
[18] = Metabolic stability in human liver microsomes assessed as hepatic clearance
[19] = Metabolic stability in rat liver microsomes assessed as hepatic extraction
[20] = Metabolic stability in human liver microsomes assessed as hepatic extraction
[21] = target: Voltage-gated inwardly rectifying potassium channel KCNH2 (Homo sapiens, UniProt Q12809)
in vivo [22] = settings: ICR, mouse, po, 10 mg/kg
Description: Tmax in ICR mouse at 10 mg/kg, po measured upto 24 hrs by LC-MS/MS analysis

in vivo [23] = settings: ICR, mouse, po, 10 mg/kg; remark: listed apart in the source
Description: Cmax in ICR mouse at 10 mg/kg, po measured upto 24 hrs by LC-MS/MS analysis

in vivo [24] = settings: ICR, mouse, po, 10 mg/kg; remark: listed apart in the source
Description: AUC (0 to t) in ICR mouse at 10 mg/kg, po measured upto 24 hrs by LC-MS/MS analysis

in vivo [25] = settings: ICR, mouse, po, 10 mg/kg; remark: listed apart in the source
Description: Oral bioavailability in ICR mouse at 10 mg/kg measured upto 24 hrs by LC-MS/MS analysis

Sequence of ATP-dependent Clp protease proteolytic subunit, mitochondrial (Q16740 whole entry): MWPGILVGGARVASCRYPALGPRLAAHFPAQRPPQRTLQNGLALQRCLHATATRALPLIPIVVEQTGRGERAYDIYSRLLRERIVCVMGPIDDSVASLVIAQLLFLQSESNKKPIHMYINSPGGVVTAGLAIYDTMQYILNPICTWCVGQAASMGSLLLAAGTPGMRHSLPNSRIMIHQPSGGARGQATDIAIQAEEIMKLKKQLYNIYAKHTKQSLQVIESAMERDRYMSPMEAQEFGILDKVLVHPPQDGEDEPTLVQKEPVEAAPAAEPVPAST
Sequence of Voltage-gated inwardly rectifying potassium channel KCNH2 (Q12809 whole entry): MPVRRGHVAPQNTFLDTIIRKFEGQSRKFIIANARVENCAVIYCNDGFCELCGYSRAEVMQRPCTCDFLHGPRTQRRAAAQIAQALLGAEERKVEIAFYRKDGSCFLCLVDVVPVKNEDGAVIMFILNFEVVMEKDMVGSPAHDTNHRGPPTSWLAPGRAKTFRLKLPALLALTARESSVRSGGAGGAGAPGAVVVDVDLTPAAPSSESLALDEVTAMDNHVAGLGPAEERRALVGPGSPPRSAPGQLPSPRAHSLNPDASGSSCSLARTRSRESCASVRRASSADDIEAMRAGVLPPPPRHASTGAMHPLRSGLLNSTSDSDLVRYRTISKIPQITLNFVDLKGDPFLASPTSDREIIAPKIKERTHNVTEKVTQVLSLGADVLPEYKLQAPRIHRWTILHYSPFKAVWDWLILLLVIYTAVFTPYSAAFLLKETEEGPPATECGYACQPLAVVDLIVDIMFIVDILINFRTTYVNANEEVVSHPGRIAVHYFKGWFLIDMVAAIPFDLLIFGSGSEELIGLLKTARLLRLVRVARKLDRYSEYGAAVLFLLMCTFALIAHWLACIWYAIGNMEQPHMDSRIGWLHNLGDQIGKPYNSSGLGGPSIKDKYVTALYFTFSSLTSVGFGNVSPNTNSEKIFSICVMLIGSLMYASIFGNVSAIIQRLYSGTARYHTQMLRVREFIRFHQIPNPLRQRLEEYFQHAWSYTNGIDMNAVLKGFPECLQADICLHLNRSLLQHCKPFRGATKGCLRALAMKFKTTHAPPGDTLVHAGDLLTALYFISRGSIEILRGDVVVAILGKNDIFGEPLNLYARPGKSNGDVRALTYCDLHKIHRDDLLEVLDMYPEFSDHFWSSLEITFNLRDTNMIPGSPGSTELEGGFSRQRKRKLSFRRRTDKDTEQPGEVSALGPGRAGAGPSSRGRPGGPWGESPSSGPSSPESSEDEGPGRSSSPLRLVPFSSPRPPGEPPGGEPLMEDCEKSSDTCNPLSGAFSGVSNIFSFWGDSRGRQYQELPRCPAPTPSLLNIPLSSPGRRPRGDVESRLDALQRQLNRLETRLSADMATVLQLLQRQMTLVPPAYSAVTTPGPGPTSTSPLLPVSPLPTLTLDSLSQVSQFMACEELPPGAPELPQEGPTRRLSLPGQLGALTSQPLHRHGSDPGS
Sequence of Bcr/Abl fusion protein (P00519 whole entry, the tested form may be a part): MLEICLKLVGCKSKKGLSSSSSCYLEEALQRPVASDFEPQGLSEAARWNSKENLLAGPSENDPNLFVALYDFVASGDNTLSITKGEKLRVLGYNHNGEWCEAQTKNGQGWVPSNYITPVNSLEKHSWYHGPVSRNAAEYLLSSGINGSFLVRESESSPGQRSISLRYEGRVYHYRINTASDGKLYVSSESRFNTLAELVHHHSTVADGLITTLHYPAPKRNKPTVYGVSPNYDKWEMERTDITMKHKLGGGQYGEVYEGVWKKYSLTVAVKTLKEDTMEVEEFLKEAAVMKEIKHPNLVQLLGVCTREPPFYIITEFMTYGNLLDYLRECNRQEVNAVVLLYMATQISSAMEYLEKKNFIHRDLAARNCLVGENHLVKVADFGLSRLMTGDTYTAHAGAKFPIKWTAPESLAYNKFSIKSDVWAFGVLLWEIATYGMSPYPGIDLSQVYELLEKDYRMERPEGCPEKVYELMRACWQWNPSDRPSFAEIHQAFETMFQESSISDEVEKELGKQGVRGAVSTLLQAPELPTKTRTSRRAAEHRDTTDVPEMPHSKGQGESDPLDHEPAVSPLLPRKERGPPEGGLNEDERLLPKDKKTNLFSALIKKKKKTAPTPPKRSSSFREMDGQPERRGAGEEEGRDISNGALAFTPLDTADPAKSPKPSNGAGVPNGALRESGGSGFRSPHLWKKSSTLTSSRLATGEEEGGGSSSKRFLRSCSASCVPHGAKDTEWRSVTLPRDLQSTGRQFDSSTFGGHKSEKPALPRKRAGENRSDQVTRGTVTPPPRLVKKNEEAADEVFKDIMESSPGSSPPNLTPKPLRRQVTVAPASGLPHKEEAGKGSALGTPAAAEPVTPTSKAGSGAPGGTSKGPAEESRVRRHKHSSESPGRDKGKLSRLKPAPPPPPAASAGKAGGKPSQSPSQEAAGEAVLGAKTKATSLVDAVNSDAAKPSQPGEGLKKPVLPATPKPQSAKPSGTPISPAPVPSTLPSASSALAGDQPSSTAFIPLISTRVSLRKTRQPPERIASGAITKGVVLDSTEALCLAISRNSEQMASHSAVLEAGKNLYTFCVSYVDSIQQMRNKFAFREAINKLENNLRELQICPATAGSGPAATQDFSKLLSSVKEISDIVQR
Sequence of Bcr/Abl fusion protein (P11274 whole entry, further chain, the tested form may be a part): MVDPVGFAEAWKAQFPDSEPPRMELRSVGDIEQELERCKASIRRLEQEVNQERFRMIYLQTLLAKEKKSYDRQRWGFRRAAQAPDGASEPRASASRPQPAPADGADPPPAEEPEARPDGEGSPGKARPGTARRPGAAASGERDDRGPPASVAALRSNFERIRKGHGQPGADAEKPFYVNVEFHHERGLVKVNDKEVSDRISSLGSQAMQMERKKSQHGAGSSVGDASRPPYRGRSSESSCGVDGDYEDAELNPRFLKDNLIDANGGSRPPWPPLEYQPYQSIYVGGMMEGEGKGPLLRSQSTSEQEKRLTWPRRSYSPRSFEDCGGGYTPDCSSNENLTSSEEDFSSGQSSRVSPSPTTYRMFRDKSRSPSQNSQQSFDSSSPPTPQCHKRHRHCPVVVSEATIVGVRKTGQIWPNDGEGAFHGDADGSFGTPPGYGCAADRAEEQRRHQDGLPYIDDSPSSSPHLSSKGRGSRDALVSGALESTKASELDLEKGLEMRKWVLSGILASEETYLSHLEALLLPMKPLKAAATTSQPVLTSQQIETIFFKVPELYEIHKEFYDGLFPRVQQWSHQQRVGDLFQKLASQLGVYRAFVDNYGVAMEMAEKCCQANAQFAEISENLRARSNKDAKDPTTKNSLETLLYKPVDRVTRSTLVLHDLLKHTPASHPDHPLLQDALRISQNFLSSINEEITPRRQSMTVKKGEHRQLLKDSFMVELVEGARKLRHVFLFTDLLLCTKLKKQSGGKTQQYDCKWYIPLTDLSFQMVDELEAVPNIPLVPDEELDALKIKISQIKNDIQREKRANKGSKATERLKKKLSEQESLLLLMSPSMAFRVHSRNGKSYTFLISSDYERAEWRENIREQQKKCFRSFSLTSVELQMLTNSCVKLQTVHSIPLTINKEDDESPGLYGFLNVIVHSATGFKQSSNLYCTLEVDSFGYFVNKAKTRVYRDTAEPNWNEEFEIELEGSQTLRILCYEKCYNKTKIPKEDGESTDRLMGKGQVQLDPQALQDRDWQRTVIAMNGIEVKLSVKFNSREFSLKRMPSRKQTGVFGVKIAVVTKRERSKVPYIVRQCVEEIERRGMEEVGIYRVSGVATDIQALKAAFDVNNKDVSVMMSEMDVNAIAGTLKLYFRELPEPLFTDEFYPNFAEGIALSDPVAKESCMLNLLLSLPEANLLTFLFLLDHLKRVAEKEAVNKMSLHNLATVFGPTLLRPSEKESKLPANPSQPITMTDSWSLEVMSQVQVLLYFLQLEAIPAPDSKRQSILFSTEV

SMILES: CC[C@H](C)C(=O)O[C@H]1CCC=C2C=C[C@H](C)[C@H](CC[C@@H]3C[C@@H](O)CC(=O)O3)[C@H]21 [MEVASTATIN]
IC50 [1]: 5.6 nM

SMILES: C[C@@]1(C(=O)N[C@@H](CCC(=O)O)C(=O)O)CCCN1C(=O)CN [TROFINETIDE] (H-Gly-[αMeP]-Glu-OH)
half-life at 12 h (in vivo [3]): 1.23 h

SMILES: Cc1cccc(CNc2nc3c(c(=O)[nH]2)CN(Cc2cccc(C#N)c2)[C@H](C)C3)c1
EC50 [2]: 113 nM
IC50 (OCI-Ly10): 148 nM

SMILES: O=C(Nc1cccc(Nc2nccc(-c3cccnc3)n2)c1)c1ccccc1
IC50 (Bcr/Abl fusion protein): 200 nM

SMILES: O=C1C2=C(CCN(Cc3ccccc3)C2)N2CCN=C2N1Cc1ccc(C(F)(F)F)cc1
EC50 [2]: 156 nM
IC50 (SU-DHL-6): 91.8 nM
IC50 (OCI-Ly3): 148 nM
IC50 (SUD4): 250 nM
IC50 (SU-DHL-2): 222 nM
IC50 (Toledo): > 250 nM
half-life at 24 h [4]: 3.75 h
MRT at 24 h [5]: 4.65 h
half-life at 24 h [6]: 2.01 h
AUC(0-t) at 24 h [7]: 1530 ng·h/mL
clearance at 24 h [8]: 21.8 mL/min/kg
MRT at 24 h [9]: 1.72 h
Vd at 24 h [10]: 2.25 L/kg
half-life [11]: 7.1 h
half-life [12]: 10.2 h
CLint scaled [13]: 487 mL/min/kg
CLint scaled [14]: 338 mL/min/kg
CLint scaled [15]: 876 mL/min/kg
CLint scaled [16]: 396 mL/min/kg
CLhep predicted [17]: 51.9 mL/min/kg
CLhep predicted [18]: 19.7 mL/min/kg
hepatic extraction ratio [19]: 0.941
hepatic extraction ratio [20]: 0.95
IC50 [21]: > 40000 nM
Tmax at 24 h (in vivo [22]): 0.42 h
Cmax at 24 h (in vivo [23]): 873 ng/mL
AUC(0-t) at 24 h (in vivo [24]): 3350 ng·h/mL
bioavailability at 24 h (in vivo [25]): 43.7%

SMILES: Cc1cc(Br)ccc1CNc1nc2c(c(=O)[nH]1)CN(Cc1cccc(C#N)c1)[C@H](C)C2
EC50 [2]: 93 nM
IC50 (OCI-Ly10): 86.9 nM

SMILES: O=c1nc2n(c3c1CN(Cc1ccccc1)CC3)CCN2Cc1ccc(F)c(Br)c1
IC50 [21]: 1520 nM

The next lines start with the values.

EC50 [2]: 2410 nM
SMILES: O=c1nc(NCc2ccc(C(F)(F)F)cc2)[nH]c2c1CN(Cc1ccccc1)CC2

EC50 [2]: 490 nM
IC50 (OCI-Ly10): 1080 nM
SMILES: C[C@@H]1Cc2nc(NCc3ccc(C(F)(F)F)cc3)[nH]c(=O)c2CN1Cc1ccc(F)cc1

EC50 [2]: 846 nM
IC50 (OCI-Ly10): 1290 nM
SMILES: C[C@@H]1Cc2nc(NCc3ccc(C(F)(F)F)cc3)[nH]c(=O)c2CN1Cc1ccccc1O

EC50 [2]: 65.1 nM
SMILES: C[C@@H]1Cc2nc(NCc3ccc(C(F)(F)F)cc3)[nH]c(=O)c2CN1Cc1ccccc1

EC50 [2]: 302 nM
IC50 (OCI-Ly10): 789 nM
SMILES: C[C@@H]1Cc2nc(NCc3ccc(C(F)(F)F)cc3)[nH]c(=O)c2CN1CC1CCCCC1

EC50 [2]: 151 nM
IC50 (OCI-Ly10): 110 nM
SMILES: C[C@@H]1Cc2nc(NCc3ccc(C(F)(F)F)cc3)[nH]c(=O)c2CN1Cc1cccc(Cl)c1

EC50 [2]: 3380 nM
IC50 (OCI-Ly10): 7840 nM
SMILES: C[C@@H]1Cc2nc(NCc3ccc(C(F)(F)F)cc3)[nH]c(=O)c2CN1Cc1cccnc1

EC50 [2]: 270 nM
IC50 (OCI-Ly10): 1290 nM
SMILES: C[C@@H]1Cc2nc(NCc3ccc(C(F)(F)F)cc3)[nH]c(=O)c2CN1Cc1cccc(OC(F)(F)F)c1

EC50 [2]: 56.1 nM
IC50 (OCI-Ly10): 41.6 nM
SMILES: C[C@@H]1Cc2nc(NCc3ccc(C(F)(F)F)cc3)[nH]c(=O)c2CN1Cc1cccc(C#N)c1

EC50 [2]: 272 nM
IC50 (OCI-Ly10): 153 nM
SMILES: C[C@@H]1Cc2nc(NCc3ccc(C(F)(F)F)cc3)[nH]c(=O)c2CN1Cc1cccc(F)c1
